Data on four compounds can be found in US20090042861A1, “Prophylactic or Therapeutic Agent for Depression or Anxiety Disorder” (Takeda Pharmaceutical Company Limited, priority 2005, published 2009).

Test [1] concerns male Wister (Jcl) rats. The experiment in a line: Water-drinking conflicting test. Format: in vivo, rat. The note with it: Example 1.
Description: Animal: male Wister (Jcl) rats were purchased at the age of 8 weeks old, and used at the age of 9 weeks old.
First, rats were put in a separate cage, and abstained from water for two days under light-dark (12-hour cycle) condition. On the day of experiment, rats were habituated to the experiment room for more than 60 minutes, and administered intraperitoneally with 30 mg/kg of compound A, 30 mg/kg of melatonin or vehicle, and then test was carried out 30 minutes after the administration.
The drug used (compound A, melatonin) was suspended in 0.5% methylcellulose physiological saline to adjust dosage to 2 mL/kg, and administered intraperitoneally. To the vehicle administration group, a 0.5% methylcellulose physiological saline was administered in the same way. All administrations and trials were performed between 9:00 and 12:00.
In the present experiment, when the animals pre-raised under a water-deprived condition drink water, they are placed in a conflicting state that they get electroshocked under the following condition.
Test Time: 300 seconds, Shock Condition: in case either 20 times of lick frequency or 2 seconds of lick time is satisfied
Shock ON Time: 2 seconds, Time-out: 180 seconds, Stimulus Intensity: 0.6 mA
Animal: male Wister (Jcl) rats were purchased at the age of 8 weeks old, and used at the age of 9 weeks old. Drug Administration Group and Test Method: Test was carried out for the following conditions. (each group n=10)
Compound A and Diazepam were suspended in 0.5% methylcellulose solution to adjust dosage to 2 mL/kg, and administered intraperitoneally. To control group, a 0.5% methylcellulose physiological saline for injection was administered as vehicle. As a drug solution to be combined, a drug solution having twice concentration of final concentration was prepared, and adjusted to final concentration by mixing equal amounts. A dose of 2 mL/kg was administered intraperitoneally, respectively. All administrations and trials were performed between 9:00 and 13:00.
First, rats were put in a separate cage, and abstained from water for two days under light-dark (12-hour cycle) condition. On the day of experiment, rats were habituated to the experiment room for more than 60 minutes, and each drug was administered intraperitoneally, and then test was carried out 30 minutes after the administration.
Significant difference test was performed with using Williams' test for vehicle administration group and multigroup drug administration groups. t-Test was used for vehicle administration group and single drug administration groups. A dose of compound A (0.3, 10 and 30 mg/kg) and 0.3 mg/kg of Diazepam were administered in combination.
For test [2], the system named is male Wister (Jcl) rats. Description: Elevated plus-maze test. Format: in vivo, rat. To be noted: Example 3. The protocol:
Animal: male Wister (Jcl) rats were purchased at the age of 5 weeks old, and used at the age of 6 weeks old.
An elevated plus-maze test equipment having arm 50 cm long by 10 cm wide was used. Its height was 40 cm, and the height of closed arm was adjusted to the same. Black was used as the color of wall. Lighting in experiment room was set to 5 lux of illuminance on the equipment.
The animals were handled from 2 days before test. Test was carried out between 8 a.m. and […]., and the animals were naturalized in the conduct test room at a measurement illuminance from 1 hour before the start of test.
The drug used (compound A, melatonin) was suspended in 0.5% methylcellulose physiological saline to adjust dosage to 2 mL/kg, and administered intraperitoneally. To the vehicle administration group, a 0.5% methylcellulose physiological saline was administered in the same way.
In the elevated plus-maze test, the animal was put in the central region of maze with the head to the direction of closed arm, and the conduct of 5 minutes duration was observed. Measurement items were number of entries into open arms and time spent in open arms which were used as an indicator of anxiety conducts, and it was considered that the more the number of entries into open arms, time spent in open arms and dipping frequency are, the less the anxiety conducts are. Further, the number of entries into closed arms was counted, which was used as an indicator of amount of motor-activity. […] Test was performed with n=10 for each group. Trial was carried out over 2 days, and 2 days' data were summed up as one test.
Significant difference test was performed with using Williams' test for vehicle administration group and multigroup drug administration groups.

A further test deals with male ICR (Jcl) mice. Description: Mouse tail suspension test. Format: in vivo. The note with it: for moving power at the trial of tail suspension test: FIGS. 9, 10. The method, then:
Action on immobility and moving power in a single application test of Paroxetine and compound A Used Animals: male ICR (Jcl) mice of 6 weeks old were used. Drug Administration Group and Test Method: Test was carried out for the following conditions. (each group n=12)
Paroxetine was dissolved in 0.5% methylcellulose physiological saline, and compound A was suspended in 0.5% methylcellulose aqueous solution for injection. To control group, a 0.5% methylcellulose physiological saline for injection was administered as vehicle. A dose of 20 ml/kg was administered intraperitoneally, respectively. Administration was carried out 30 minutes before trial of tail suspension.
Animals were put in a 5-row-cage with 8 each cage, and fully habituated. Drug administrations and trials were performed between 13:00 and 17:00.
An automated measuring equipment made according to the method of Steru (Psycopharmacology 85, 367-370, 1985) was used for measurement. The mouse was suspended by the tail in a soundproof box (16 cm×38 cm×33 cm) divided individually, and then the immobility rate of 10 minutes duration was measured. Tail suspension was carried out by fixing a 5 cm wire to a sensor and suspending the mouse with fixing its tail with a tape at the end of the wire. By weighing every 10 msec, the movement of the mouse was calculated through A/D converter as moving power for one second. The moving power of less than 1% of body weight of mouse was considered to be in the immobile state, and the immobility rate for every one minute was measured. Test was carried out for 10 minutes, and all the experiments were controlled with personal computer (NEC-9801).
Action on immobility and moving power in a combined application test of Paroxetine and compound A Used Animals: male ICR (Jcl) mice of 6 weeks old were used. Drug Administration Group and Test Method: Test was carried out for the following conditions. (each group n=15-16)
Paroxetine was dissolved in 0.5% methylcellulose physiological saline, and compound A was suspended in 0.5% methylcellulose aqueous solution for injection. To control group, a 0.5% methylcellulose physiological saline for injection was administered as vehicle. As a drug solution to be combined, a drug solution having twice concentration of final concentration was prepared, and adjusted to final concentration by mixing equal amounts. A dose of 20 ml/kg was administered intraperitoneally, respectively. Administration was carried out 30 minutes before trial of tail suspension.

With `COc1ccc2[nH]cc(CCNC(C)=O)c2c1` [melatonin], the anti-conflicting effect entry in the test with male Wister (Jcl) rats [1] (30 mg/kg intraperitoneally, test 30 minutes after administration, vs vehicle group, Williams' test) is recorded as “a little anti-conflicting effect was observed, but it was not a significant effect”. Besides, the “action in elevated plus-maze (open arm entries and time)” value with male Wister (Jcl) rats [2] (intraperitoneal, vs vehicle group, Williams' test) is on record as “a significant action was not observed”.
For the compound `CCC(=O)NCC[C@@H]1CCc2ccc3c(c21)CCO3` [Compound A, (S)-N-[2-(1,6,7,8-Tetrahydro-2H-indeno[5,4-b]furan-8-yl)ethyl]propionamide], the lick frequency entry with male Wister (Jcl) rats [1] (30 mg/kg intraperitoneally, test 30 minutes after administration, vs vehicle group, Williams' test, FIG. 1) was “significant increasing effect”. Besides, the shock frequency result in the test with male Wister (Jcl) rats [1] (30 mg/kg intraperitoneally, test 30 minutes after administration, vs vehicle group, Williams' test, FIG. 2) is on record as “significant increasing effect”. Also, the “time spent in open arms” value with male Wister (Jcl) rats [2] (intraperitoneal, 5 minutes observation, vs vehicle group, FIG. 5) is on record as “an increase”. The “number of entries into open arms” value with male Wister (Jcl) rats [2] (intraperitoneal, 5 minutes observation, vs vehicle group, FIG. 6) is given as “an increase”. The immobility entry with male ICR (Jcl) mice (Example 4, single application, 3, 10 and 30 mg/kg (i.p.), 30 minutes before trial, FIGS. 7, 8) is recorded as “didn't have an affect”. The “moving power at the trial of tail suspension test” value with male ICR (Jcl) mice (Example 4, single application, 3, 10 and 30 mg/kg (i.p.)) was “didn't have an affect”. Also, the “effect on the antidepressant action of Paroxetine” value with male ICR (Jcl) mice (Example 5, Compound A 1, 3 and 10 mg/kg with Paroxetine 1 mg/kg (i.p.)) is recorded as “enhances the antidepressant action of Paroxetine”.
Regarding `CN1C(=O)CN=C(c2ccccc2)c2cc(Cl)ccc21` [Diazepam], the “effect in this system (control drug)” value is recorded as “exhibits an effect” in the test with male Wister (Jcl) rats [1] (control drug, dose not given) and “exhibits an effect” with male Wister (Jcl) rats [2] (control drug, dose not given).
On to `Fc1ccc([C@@H]2CCNC[C@H]2COc2ccc3c(c2)OCO3)cc1` [Paroxetine], for which, in the test with male ICR (Jcl) mice (Example 4, single application, 0.3, 1, 3 and 10 mg/kg (i.p.), vs vehicle group), the “moving power at the trial of tail suspension test” value is on record as “increase a little”.
